Consider eleven molecules from ChEMBL document CHEMBL1201862, “PubChem BioAssay data set” (2004).

Common to all, as to assay: inhibition of tumour cell growth, NCI panel, 48 h
The subject of test [1] is OVCAR-8.
Test [2] relates to K562.
For test [3], the system named is OVCAR-3.
The subject of test [4] is COLO 205.
Test [5] concerns NCI-H460.
Test [6] concerns HL-60.
Test [7] relates to SW-620.
For test [8], the system named is RXF 393.
For test [9], the system named is UO-31.
In test [10] the test system is EKVX.
Test [11] concerns HOP-62.
The subject of test [12] is SNB-75.
Test [13] relates to SF-268.
The subject of test [14] is A549.
Test [15] concerns KM-20L2.
For test [16], the system named is BT-549.
Test [17] concerns HT-29.
The test system of test [18] is CCRF-CEM.
In test [19] the test system is HOP-92.
The subject of test [20] is MDA-MB-435.

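Dose response: 5 concentrations. Exposure: 48 h. Format: 96-well plates. Endpoint: linear interpolation; highest concentration if not reached. GI50 marks 50% less growth.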 Active and inactive are the calls of the source. Cut-off read from the data, not from the text of the source: active = GI50 up to about 1.1 µM and inactive = higher. Where a SMILES comes first, the peptide text is derived from it. The star is where a group is joined. Boc = CC(C)(C)OC(=O)*; tBu = CC(C)(C)*

`Nc1ccn([C@@H]2C[C@H](CO)[C@@H](O)[C@H]2O)c(=O)n1`: the GI50 in test [1], in test [2], in test [3], in [4], in test [5] and in test [6] was > 57.7 µM (inactive) in each case. For the same molecule, the GI50 in test [7], in test [8], in [9], in test [10], in [11] and in test [12] was > 57.7 µM (inactive) throughout. In addition, the GI50 in test [13], in [14] and in test [15] was > 57.7 µM (inactive) in each case.

As to `Cc1cccc(C)c1NC(=O)C(Cc1c[nH]c2ccccc12)NC(=O)OCc1ccccc1` (stereo not drawn), the GI50 in [1] is 27.3 µM (inactive); in test [2] it was 30.2 µM (inactive); in [3] it was 22.9 µM (inactive); in test [4], 13.2 µM (inactive); in [16], 24.8 µM (inactive); in test [17], 18.7 µM (inactive). Further, the GI50 is 17.7 µM (inactive) in [5]; 17.8 µM (inactive) in test [18]; 12.4 µM (inactive) in test [6]; 27.8 µM (inactive) in test [7]; 22.4 µM (inactive) in test [19]; 13.9 µM (inactive) in test [8]. For the same molecule, the GI50 is 10.3 µM (inactive) in test [9]; 15.2 µM (inactive) in [10]; 41 µM (inactive) in test [11]; 14.7 µM (inactive) in test [20]; 18.7 µM (inactive) in test [12]; 18.7 µM (inactive) in test [13]. For the same molecule, in [14], the GI50 was 14.6 µM (inactive).

As for `COC(=O)N/N=C(\C)C(CN1CCCCC1)C(C1=C(O)c2ccccc2OC1)c1ccccc1` (stereo not drawn), the GI50 in test [1], in [2], in test [3], in [4], in test [17] and in test [5] was > 100 µM (inactive) in each case. Moreover, the GI50 in test [18] was > 100 µM (inactive); in [6], > 100 µM (inactive); in [7] it was > 100 µM (inactive); in test [8], 17.9 µM (inactive); in [9], 72.4 µM (inactive); in test [10], > 100 µM (inactive). Also, the GI50 in test [11] is > 100 µM (inactive); in [12], 95.7 µM (inactive); in test [13] it was > 100 µM (inactive); in test [14], > 100 µM (inactive); in test [15], > 100 µM (inactive).

For `N#C/C(=C1\N=C(c2ccccc2O)Oc2ccccc21)c1ccc([N+](=O)[O-])cc1`, the GI50 in test [1], in [2], in test [3], in test [4], in test [16] and in [17] was > 100 µM (inactive) throughout. In addition, the GI50 in test [5], in test [18], in test [6], in test [7], in test [19] and in [8] was > 100 µM (inactive) throughout. For the same molecule, the GI50 in [9] was > 100 µM (inactive); in test [10], > 100 µM (inactive); in test [11] it was 33.8 µM (inactive); in test [20], > 100 µM (inactive); in test [12] it was 70.6 µM (inactive); in test [13], > 100 µM (inactive). Further, in [14], the GI50 was > 100 µM (inactive).

Turning to `O=c1[nH]c(=O)n(C2CC(O)C(CO)O2)cc1C#Cc1ccc(F)cc1` (stereo not drawn), the GI50 in test [1], in test [2], in test [3], in test [4], in test [17] and in test [5] was > 100 µM (inactive) in each case. The GI50 in test [18], in test [7], in test [9], in test [10], in test [11] and in test [12] was > 100 µM (inactive) in each case. The GI50 in test [13], in test [14] and in test [15] was > 100 µM (inactive) throughout.

As to `Cc1ccc(NC(=O)CSc2nnc(-c3ccc(/N=C\c4ccc(Cl)cc4)cc3)o2)cc1`, the GI50 in test [1], in test [2], in [4], in test [17], in test [5] and in test [18] was > 100 µM (inactive) each time. Besides, the GI50 in test [6], in [7], in [8], in test [9], in test [10] and in [11] was > 100 µM (inactive) throughout. Also, the GI50 was 72.8 µM (inactive) in test [12], > 100 µM (inactive) in test [13], > 100 µM (inactive) in test [14] and > 100 µM (inactive) in [15].

With `COc1c(C)c(OC)c2c(c1O)[C@@H]1[C@@H]3Cc4c(OC)c(C)c(OC)c(O)c4[C@H](CNC(=O)c4cnc5ccccc5n4)N3[C@@H](C#N)[C@H](C2)N1C`, the GI50 in test [1] was 0.00283 µM (active); in [2], 0.000977 µM (active); in test [3], 0.00214 µM (active); in test [4], 0.00119 µM (active); in [16] it was 0.00132 µM (active); in test [17], 0.00206 µM (active). The GI50 in test [5] is 0.004 µM (active); in test [18] it was 0.000798 µM (active); in [6], 0.00153 µM (active); in test [7] it was 0.002 µM (active); in [19] it was 0.00136 µM (active); in test [8] it was 0.00341 µM (active). Moreover, the GI50 is 0.0064 µM (active) in test [9]; 0.00149 µM (active) in test [10]; 0.00429 µM (active) in test [11]; 0.00255 µM (active) in [20]; 0.00266 µM (active) in test [12]; 0.00354 µM (active) in test [13]. In addition, in test [14], the GI50 is 0.0292 µM (active).

As to `Sc1nnc(-c2ccnc(-c3nnc(S)[nH]3)c2)[nH]1`, the GI50 in [1], in test [2], in [3], in [4], in test [17] and in [5] was > 100 µM (inactive) in each case. The GI50 in test [18], in [6], in test [7], in [8], in test [9] and in test [10] was > 100 µM (inactive) in each case. For the same molecule, the GI50 in [11], in test [13], in test [14] and in test [15] was > 100 µM (inactive) each time.

On to `O=C(O)C1C2C=CC(O2)C1C(=O)NCc1cccnc1` (stereo not drawn), for which the GI50 in [1], in test [2], in test [3], in test [4], in test [16] and in test [17] was > 100 µM (inactive) in each case. For the same molecule, the GI50 in test [5], in test [18], in [6], in test [7], in [19] and in test [8] was > 100 µM (inactive) in each case. Also, the GI50 in test [9], in test [10], in [11], in test [20], in test [12] and in [13] was > 100 µM (inactive) in each case. For the same molecule, the GI50 in test [14] is > 100 µM (inactive).

Take `COc1cc(CCN)c(OC)c(OC)c1`: the GI50 in [1] is > 100 µM (inactive); in test [2], 62.1 µM (inactive); in [3] it was > 100 µM (inactive); in test [4] it was > 100 µM (inactive); in test [16], > 100 µM (inactive); in test [17], > 100 µM (inactive). Moreover, the GI50 in [5] is > 100 µM (inactive); in test [18], 34.8 µM (inactive); in [6], 40.4 µM (inactive); in test [7] it was 36.2 µM (inactive); in test [19], 62.4 µM (inactive); in [8] it was > 100 µM (inactive). Besides, the GI50 in [9] is > 100 µM (inactive); in test [10] it was > 100 µM (inactive); in test [11], > 100 µM (inactive); in test [20], 24.8 µM (inactive); in [12] it was > 100 µM (inactive); in test [13], > 100 µM (inactive). Further, the GI50 in [14] was > 100 µM (inactive).

Regarding `CC(OC(C)(C)C)C(NC(=O)C(N)CCCCNC(=O)OC(C)(C)C)C(=O)NC(Cc1ccccc1)C(=O)O` (stereo not drawn) (H-Lys(Boc)-Thr(tBu)-Phe-OH; configuration not given here), the GI50 in test [1], in test [2], in test [3], in test [4], in [16] and in test [17] was > 100 µM (inactive) in each case. For the same molecule, the GI50 in [5], in test [18], in test [6], in [7], in test [19] and in test [8] was > 100 µM (inactive) in each case. Further, the GI50 in test [9], in [10], in [11], in test [20], in test [12] and in test [13] was > 100 µM (inactive) throughout. In addition, the GI50 in test [14] was > 100 µM (inactive).
